Measurements published in US10640463B2, “Chlorhexidine crystal forms and uses thereof in medicine” (Queen Mary University of London, priority 2016, dated 2020).

Columns and labels:
[1] = Chlorhexidine release from HEMA-UDMA resin discs, with or without ultrasound; format: physicochemical; conditions: no ultrasound, within 65 hours
Method: HEMA-UDMA resin was prepared by mixing 64% urethane dimethacrylate (UDMA) (Esschem UK, Lot: 591-22) and 36% hydroxyethyl methacrylate (HEMA) (Aldrich, 128635, Lot: STBC7495V), 0.08% of N,N-dimethyl-P-toluidine (Acros Organics, Lot: A0207283001) and 0.05% dimethylamino ethyl methacrylate (Aldrich, 234907, Lot: BCBF8391V) were added. The mixture was then stirred for 15 min (800 rpm, VWR Stirrer, USA). Finally, camphorquinone (Aldrich, 12, 489-3, Lot: 2338141) was added at the proportion of 0.1%. The mixture was stirred for another 15 min (VWR Stirrer, USA), and then the viscous liquid resin was prepared. Freeze dried chlorhexidine chloride compounds produced in Example 2 (precipitated with 0.33 M CaCl2) were weighed and incorporated within the resin at a loading level of 5% by weight. To explore the effect of different morphology on the release kinetics, chlorhexidine compounds with spherical, needle and flake morphology (from Example 1, FIG. 1, panels (b) and (c)) were incorporated into the resin. Incorporation of the chlorhexidine compounds within the resin was carried out by rotating the mixture contained in a 1 ml tube for 15 s in a Rotomix (120V/60 Hz, 2850 rotations/min) (ESPE RotoMix, USA). Chlorhexidine diacetate was also incorporated in the prepared resin in the same way, with loading rates of 5%, 10% and 15% (weight %). The filled resin was then placed into a Teflon mould (10 mm in diameter ×2 mm thick) and cured through a Mylar film with a curing light (Bluedent LED pen, Bulgaria) (430-490 nm, 600 mW/sq·cm) for 30 s. Then the discs were next weighed on a microbalance (Salter Ander-180A weighing scale, UK), and chlorhexidine content in each disc was calculated.
For the release study, all sample resin discs (HEMA-UDMA) containing chlorhexidine chloride compounds or chlorhexidine diacetate powder prepared in Example 5 were kept in cuvettes containing 3 ml deionized water, and kept at room temperature. And at each time point, solutions were collected for UV absorption tests (Lambda 35, Perkin Elmer, USA) and replaced with fresh deionized water.
For the chlorhexidine chloride compound doped discs (Example 5) chlorhexidine content was fixed at 5%, and ultrasound was exerted. Four groups (five discs in each group) were repetitively treated with ultrasound for 0 s, 10 s, 20 s, 30 s, accordingly, by contacting the ultrasound probe (Piezon Master 400, Swiss, 60 Hz, 45VA) on the disc surface at time points of 1 h, 3 h, 5 h, 15 h, 25 h, 40 h, 65 h, 95 h, 140 h, 205 h. After that, no ultrasound was carried out for all the groups, but release was carried on until the 650 hour time point. The UDMA-HEMA discs containing needle and flake chlorhexidine compounds and chlorhexidine diacetate (FIG. 1, panels (b) and (c), and FIG. 3, panel (g)) were also tested (UV absorption tests) at the same time points (same sample numbers) but without ultrasound treatment. For the chlorhexidine diacetate powder doped discs chlorhexidine content of 5%, 10% and 15% were also analysed, and no ultrasound treatment was carried out.

[2] = Thermo-gravimetric analysis (TGA); format: physicochemical; conditions: TGA at 10° C./min in nitrogen, 50-800° C.
Method: The chlorhexidine chloride spheres (0.33M CaCl2 group) were analysed by Thermo-gravimetric analysis (TGA Q50, USA). Chlorhexidine diacetate crystals and CaCl2 powder (Sigma-Aldrich, C8106, Lot: SLBF7416V) were tested as comparisons. TGA was carried out at 10° C./min in a nitrogen atmosphere, over a temperature range of 50-800° C. The chlorhexidine proportion was further confirmed by the TGA result. […] The decomposition temperature of the chlorhexidine chloride spheres (210° C.) was higher than the chlorhexidine diacetate crystals (120° C.).

L929 cells = conditions: mouse
Method: 0.5% chlorhexidine spheres stock solution was used to prepare fresh successive dilutions in sterile deionised water to obtain the final concentrations ranging from 0.0005 to 0.25%. For controls (untreated cultures), sterile deionised water was used. 25 μl of each treatment were added into respective wells to achieve final concentrations ranging from 0.00005-0.025%.
L929 cells, a mouse fibroblast-like cell line (ECACC 85011425) were cultured in Dulbecco's Modified Eagle's Medium (DMEM; Lonza, UK) supplemented with 10% fetal bovine serum (FBS) with 100 IU/mL penicillin, 100 μg/mL streptomycin and 2 mmol/L glutamine (all from Invitrogen, UK) in an humidified incubator with 10% CO2 and 95% air at 37° C.
Cell metabolic activity was evaluated by measuring the mitochondrial activity using a method commonly known as a methyl-tetrazolium (MTT) assay. MTT assay was carried out according to the protocols outlined in ISO 1 0993-5:2009 (Biological evaluation of medical devices—Part 5: Tests for in vitro cytotoxicity).
Trypsinisation was performed by routine methods and cell suspension was counted using a haemocytometer and seeded in 96-well microtiter plates at a concentration of 10,000 cells per well. The cells were then left overnight in the incubator to adhere to the wells. Following overnight incubation, medium was removed and cells were washed twice with PBS. The cells were then treated with different concentrations of chlorhexidine spheres (0.00005-0.025%) for 24 and 48 hours. Following treatment, culture medium containing chlorhexidine spheres was removed and 50 μL of 5 mg/mL tetrazolium salt MTT (Sigma-Aldrich, Gillingham, UK) was added to each well and incubated in 37 C for 4 h. Formazan crystals generated by mitochondrial enzyme activity were dissolved by 100 μl of isopropanol and the intensity of purple coloured reaction product quantified by measuring the absorbance spectra at 570 nm. A cell viability level below 70% of control (no treatment) was regarded as the toxic concentration according to the ISO protocol.

chlorhexidine released by weight ([1]; 5% loading, deionized water, room temperature)	chlorhexidine released by weight ([1]; 10% loading)	chlorhexidine released by weight ([1]; 15% loading)	decomposition temperature [2]	SMILES	cellular viability (L929 cells)
6.7%	11.0%	15.1%	120 °C	CC(=O)O.CC(=O)O.NC(=N\CCCCCC/N=C(N)/N=C(\N)Nc1ccc(Cl)cc1)/N=C(\N)Nc1ccc(Cl)cc1 [chlorhexidine diacetate, Chlorhexidine diacetate, reference compound]	–
–	–	–	–	[H]/N=C(\N/C(=N/[H])NCCCCCCNC(=N)NC(=N)Nc1ccc(Cl)cc1)Nc1ccc(Cl)cc1 [chlorhexidine, N,N″″1,6-Hexanediylbis[N′-(4-chlorophenyl)(imidodicarbonimidic diamide)]]	below 10%
